In US11707442B2, “Antibacterial and antifungal compounds” (The General Hospital Corporation, priority 2015, dated 2023):
In brackets after ≈: the same amount, converted by molar mass.

Columns and labels:
[1] = target: T1, hERG potassium channel (Homo sapiens, UniProt Q12809); test: hERG potassium channel inhibition (IonWorks HT, CHO cells); assay type: cell-based; conditions: at 25 μM
T1 construct: host or cells: Chinese hamster ovary (CHO) cells
Procedure: Evaluation of human ether-a-go-go-related gene (hERG) potassium channel inhibition potential. […] Electrophysiology measurement was conducted using an IonWorks™ HT instrument (Molecular Devices Corporation, Sunnyvale, Calif., USA) and 384-well planar PatChPlate™ (Molecular Devices Corporation). Briefly, Chinese hamster ovary (CHO) cells expressing the hERG potassium channel were dispensed into 384-well planar arrays, and hERG tail currents were measured by whole-cell voltage clamping. A range of concentrations (0.008 μM to 25 μM) of each retinoid were then added to the cells, and a second recording of the hERG current was made. The percent change in the hERG current was calculated.

[2] = system: S. aureus; test: Disc clearing assay; assay type: cell-based, Staphylococcus aureus; conditions: result in words
Procedure: Disc clearing assay: The disc diffusion test was performed on Mueller Hinton (MH) agar plates for bacterial cultures and yeast extract, peptone, dextrose (YPD) for fungal cultures. The assay was repeated 3 times. Discs were soaked in 10 μl of either DMSO or 10 mg/ml compound stock solution and air-dried. Three hundred microliters of an overnight culture of bacteria or fungi were spread on plates. After completely drying the agar plate in a laminar flow hood, DMSO or compound impregnated discs were overlaid on the plate and incubated at 35° C. for 18 hrs.
The disc diffusion test was carried out in triplicate on cation-adjusted Miller-Hinton agar. 6 mm discs were impregnated with 50 μg of compounds and air-dried. Three hundred microliters of an overnight S. aureus MW2 culture was spread on an agar plate and air-dried. The antimicrobial discs were overlaid on the plate and incubated at 37° C. for 20 hrs.

[3] = system: S. aureus MW2 (MRSA) in neutropenic mouse thigh; assay type: in vivo
Procedure: Deep-seated mouse thigh infection model for evaluating drug efficacy. A previously described protocol to mimic a chronic, deep-tissue infection was used with modifications (See, e.g., Conlon, B. P. et al. Activated ClpP kills persisters and eradicates a chronic biofilm infection. Nature 503, 365-370 (2013)). Six-week-old female CD1 ICR outbred mice (20-25 g) were obtained from Charles River Laboratories. To make mice neutropenic, 150 mg/kg and 100 mg/kg of cyclophosphamide were administered intraperitoneally (i.p.) at 4 days and 1 day before infection, respectively. On the day of infection, ˜10^7 cells of stationary-phase S. aureus MW2 resuspended in 50 μl saline were injected to the right thigh of each mouse. […] Control mice were injected with 200 μl of 10% Kolliphor EL/ethanol in saline i.p. every 12 h for 3 days. After euthanizing mice at 96 h post-infection, blood was collected by cardiac puncture and the infected thighs were aseptically excised. All samples were stored at 4° C. until use. Serum was analyzed for alanine aminotransferase and urea nitrogen content with commercially available kits, following the manufacturer's protocol (Pointe Scientific, Canton, Mich., USA). Thighs were homogenized in PBS and the number of MRSA in homogenates was enumerated by serial dilution and spot-plating on TSA plates, and bacterial load was recorded as CFU/g thigh tissue. […] Statistical significance among each group was analyzed by one-way ANOVA with post-hoc Tukey test using PASW Statistics 18 (SPSS Inc. Chicago, Ill., USA).
At 12 h after the last treatment, mice were euthanized and their thighs were excised and homogenized. […] Statistical differences between control and antibiotic treatment groups were analyzed by one-way ANOVA and post-hoc Tukey test (***p<0.001).
At 12 h after the last treatment, mice were euthanized, blood was collected and analyzed for ALT and BUN. […] Control and antibiotic treatment were analyzed by one-way ANOVA and post-hoc Tukey test to confirm a lack of significant difference

[4] = system: E. faecalis; test: MIC, broth microdilution; assay type: cell-based, Enterococcus faecalis; conditions: for MIC: Enterococcus faecalis, E. faecalis, (range given for E. faecium and E. faecalis); for susceptibility of E. faecalis: result in words
Procedure: To test the bacterial MICs for compounds described herein, the total volume in each well was 100 μl of test compounds and bacterial cells in MH broth. Two-fold serial dilutions were carried out to get compounds in the concentration range 0.0625-64 μg/ml. The bacterial concentration was adjusted to an initial OD600 of 0.03. After incubation at 35° C. for 18 hrs, the absorbance was measured at 595 nm in accordance with CLSI document M07-A8. The MICs of antibiotics were determined by the standard microdilution method recommended by the Clinical and Laboratory Standards Institute.

T1 sequence (Q12809 whole entry): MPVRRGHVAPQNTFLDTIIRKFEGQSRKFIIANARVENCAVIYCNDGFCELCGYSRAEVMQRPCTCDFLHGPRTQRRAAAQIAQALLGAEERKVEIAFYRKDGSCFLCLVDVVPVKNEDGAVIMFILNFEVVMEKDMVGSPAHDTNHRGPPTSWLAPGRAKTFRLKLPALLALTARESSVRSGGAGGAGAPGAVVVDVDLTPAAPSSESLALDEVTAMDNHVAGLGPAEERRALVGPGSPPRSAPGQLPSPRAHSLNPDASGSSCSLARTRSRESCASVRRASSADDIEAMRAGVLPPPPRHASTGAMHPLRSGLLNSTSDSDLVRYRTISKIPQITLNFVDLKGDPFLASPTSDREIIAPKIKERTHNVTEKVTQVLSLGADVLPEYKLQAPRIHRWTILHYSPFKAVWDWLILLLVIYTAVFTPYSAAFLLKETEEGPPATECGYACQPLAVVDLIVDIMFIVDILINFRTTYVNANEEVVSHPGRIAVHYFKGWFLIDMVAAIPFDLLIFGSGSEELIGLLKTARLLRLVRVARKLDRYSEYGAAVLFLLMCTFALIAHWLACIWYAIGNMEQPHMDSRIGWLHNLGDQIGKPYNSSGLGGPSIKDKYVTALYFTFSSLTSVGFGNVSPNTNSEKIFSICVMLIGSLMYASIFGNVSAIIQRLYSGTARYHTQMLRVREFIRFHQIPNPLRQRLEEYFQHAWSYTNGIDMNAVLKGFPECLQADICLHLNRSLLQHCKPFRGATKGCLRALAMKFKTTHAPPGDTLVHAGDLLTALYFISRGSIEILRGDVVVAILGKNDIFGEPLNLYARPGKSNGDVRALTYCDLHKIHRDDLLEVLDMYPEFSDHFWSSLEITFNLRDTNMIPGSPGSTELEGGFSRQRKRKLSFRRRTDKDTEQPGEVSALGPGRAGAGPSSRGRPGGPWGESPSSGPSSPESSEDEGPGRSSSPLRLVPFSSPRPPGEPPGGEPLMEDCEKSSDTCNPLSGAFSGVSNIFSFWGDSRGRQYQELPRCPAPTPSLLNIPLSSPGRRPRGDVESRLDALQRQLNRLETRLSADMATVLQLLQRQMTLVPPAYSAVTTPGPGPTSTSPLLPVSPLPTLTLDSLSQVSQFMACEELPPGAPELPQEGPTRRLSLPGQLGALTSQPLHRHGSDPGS

SMILES | inhibition of hERG potassium channels [1] | zone of inhibition, S. aureus [2] | MRSA cells killed in thigh ([3]; CD437 20 mg/kg i.p. alone, every 12 h for 3 days) [%] | persisters killed in thigh, combination ([3]; CD437 20 mg/kg i.p. plus gentamicin 30 mg/kg s.c., every 12 h for 3 days) [%] | serum levels of ALT or BUN ([3]; mouse, in vivo, ip, 20 mg/kg) | MIC [4] [µg/mL] | susceptibility of E. faecalis [4]
O=C(O)/C=C/c1ccc(-c2ccc(O)c(C34CC5CC(CC(C5)C3)C4)c2)cc1 [Adarotene, (2E)-3-(4′-Hydroxy-3′-tricyclo[3.3.1.13,7]dec-1-yl[1,1′-biphenyl]-4-yl)-2-propenoic acid] | did not inhibit | – | – | – | – | – | –
O=C(O)c1ccc2cc(-c3ccc(O)c(C45CC6CC(CC(C6)C4)C5)c3)ccc2c1 [CD437, 6-(4-hydroxy-3-tricyclo[3.3.1.13,7]dec-1-ylphenyl)-2-naphthalenecarboxylic acid] | – | inhibits the growth | ~90 | ~99 | did not have elevated serum levels | 2 to 4 (≈ 5.02 to 10 µM) | susceptible
O=C(O)c1ccc(-c2ccc3cc(O)c(C45CC6CC(CC(C6)C4)C5)cc3c2)cc1 [CD1530, 4-(6-hydroxy-7-tricyclo[3.3.1.13,7]dec-1-yl-2-naphthalenyl)-benzoic acid] | did not inhibit | – | – | – | – | 2 to 4 (≈ 5.02 to 10 µM) | susceptible
